Legend:
[1] = tested on: Dopaminergic neural-crest derived PC12 cells; assay: Dopamine secretion from dopaminergic PC12 cells (radioimmunoassay); format: cell-based, rat; conditions: 10^-7 M
Description: Dopaminergic neural-crest derived PC12 cells were grown in 6-well plates, coated with poly-L-lysine, at a concentration of 10^6 cells/well. Cells were incubated with neurosteroids or the vehicle for several time periods; for the short-term experiments the incubation time ranged from 5 to 30 minutes and for the long-term from 3 to 48 hours. 1 mL of supernatants were transferred to tubes containing 200 μl 0.1 M HCl for measurement of dopamine, which was measured by radioimmunoassay (TriCat™ RIA, RE29395, IBL Immuno Biological Lab., Hamburg, Germany) using ^125I as a tracer. The analytical sensitivity of the method was 30 pg/ml, its intra-assay CV was 9.5%, and its inter-assay CV was 16.7%. The cross reactivity between dopamine and norepinephrine was <0.013%

[2] = tested on: Ishikawa cells; assay: Ishikawa cell growth (MTT), estrogen agonism/antagonism; format: cell-based, human
From the text: Treatment of postmenopausal syndromes with 17β-estradiol (E2) is associated with a higher risk of developing breast and/or endometrial cancer (Arch Intern Med. 166, 1027 (2006)). E2 stimulation of the proliferation of cancer cells is driven by estrogen receptor alpha (ERα) (Mol. Endocrinol. 13, 969 (1999)). Since BNN-50, BNN-93 and BNN-124 may form two hydrogen bonds with an O—O distance of 10.9-12.5 Å and thus may fit the ERα binding cavity (Chem. Biol. 11, 397 (2004)), it was imperative to examine the estrogen agonism/antagonism properties of these neurosteroids using human adenocarcinoma cells from breast (MCF-7 cells) and uterus (Ishikawa cells) as reporters. […] Differences between control and neurosteroid-treated cells were assessed using one-way ANOVA. […]
To determine neurosteroid effects on the growth of MCF-7 human mammary (from ATCC) and Ishikawa endometrial adenocarcinoma cells (from ECACC), the cells were cultured at 37° C. in Dulbecco's Minimal Essential Medium (DMEM) supplemented with 10% Fetal Bovine Serum (FBS, from Biochrom) in 5% CO2 and subcultured using a trypsin 0.25%-EDTA 0.02% solution. Neurosteroid effects on the growth of the cells were assessed using MTT [3-(4,5-dimethylthiazol-2-yl)-2,5-diphenyltetrazolium bromide] and standard methodology (Chem. Biol. 11, 397 (2004)). […]

[3] = tested on: tyrosine hydroxylase mRNA; assay: Tyrosine hydroxylase (TH) RT-PCR in dopaminergic PC12 cells; format: cell-based, rat; conditions: dopaminergic PC12 cells (FIG. 6C)
Description: Tyrosine Hydroxylase (TH) RT-PCR: Total RNA was extracted from dopaminergic PC12 cells using the Trizol Reagent (Invitrogen Life technologies, CA). One microgram of total RNA was reverse transcribed by the Thermo-Script RT-PCR System (Invitrogen) using random hexamers in a total volume of 20 μl. Two microliters of the RT product was used as a template, amplified by PCR using 2 mM MgCl2, one strength PCR buffer, 0.2 mM of sense and antisense primers, 0.2 mM dNTPs and 2.5 U AmpliTaq Gold DNA polymerase (Perkin Elmer ABD, Foster City, Calif.) in a final reaction volume of 50 μl. PCR was performed in a Perkin Elmer DNA Thermal Cycler. Primers for TH were 5′-[…]-3′ (sense), and 5-[…]-3 (antisense) and for G3PDH were, 5′-[…]-3′ (sense), and 5′-[…]-3′ (antisense). Oligonucleotides were synthesized by MWG-Biotech AG (Munich, Germany). After reverse transcription, the cDNA product was amplified by PCR, at 33 cycles. The cycle number (33) was chosen such that amplification of the products was in the linear range with respect to the amount of input cDNA. PCR for G3PDH was performed in parallel to assure good quality of RNA and cDNA preparations. Each cycle consisted of 60 s at 92° C. for denaturation, 120 s at 53° C. for annealing, and 180 s at 72° C. for extension (60 s at 98° C., 90 s at 55° C., and 150 s at 72° C. for G3PDH respectively). 10 μl of the amplified products (368 bp for TH and 983 bp for G3PDH) were separated on a 2% agarose gel and visualized by ethidium bromide staining.

[4] = tested on: Ishikawa cells; assay: Alkaline phosphatase activity of Ishikawa cells, estrogen agonism/antagonism; format: cell-based, human
From the text: Treatment of postmenopausal syndromes with 17β-estradiol (E2) is associated with a higher risk of developing breast and/or endometrial cancer (Arch Intern Med. 166, 1027 (2006)). E2 stimulation of the proliferation of cancer cells is driven by estrogen receptor alpha (ERα) (Mol. Endocrinol. 13, 969 (1999)). Since BNN-50, BNN-93 and BNN-124 may form two hydrogen bonds with an O—O distance of 10.9-12.5 Å and thus may fit the ERα binding cavity (Chem. Biol. 11, 397 (2004)), it was imperative to examine the estrogen agonism/antagonism properties of these neurosteroids using human adenocarcinoma cells from breast (MCF-7 cells) and uterus (Ishikawa cells) as reporters. Full estrogen agonism (E2 at ≧0.1 nM) and non-agonism (vehicle only) controls served to classify the neurosteroids as super, full, partial, weak and marginal agonists depending on whether their estrogenic efficacy was >100, 76-100, 26-75, 10-25 and 1-10% of that of E2 (set equal to 100). Similarly, full antagonism of the effect of E2 (at 0.1 nM) by ICI 182, 780 (at ≧10 nM) and non-antagonism (vehicle only) controls served to classify the neurosteroids as full, partial, weak and marginal antagonists depending on whether their suppression of the effect of E2 was 76-100, 26-75, 10-25 and 1-10% of that of ICI 182, 780. Differences between control and neurosteroid-treated cells were assessed using one-way ANOVA. […]

SMILES: C[C@]12CC[C@H](O)CC1=CCC1C2CC[C@@]2(C)C1CC[C@@]21CO1 (stereo partly drawn) [BNN-50, 17β-spiro-[5-androsten-17,2′-oxiran]-3β-ol]
- dopamine levels in culture media, long-term ([1]; 3 to 48 hours (FIG. 6B)): increase of dopamine levels peaking at 24 h
- stimulation of dopamine secretion, short-term ([1]; 5 to 30 min, effect within 10 min (FIG. 6A)): doubling their levels
- E2 agonism (at 1 uM), Ishikawa cell growth [2]: non-significant
- E2 antagonism (at 1 uM), Ishikawa cell growth ([2]; against E2 at 0.1 nM): non-significant
- induction of tyrosine hydroxylase mRNA [3]: strong induction
- E2 agonism (at 1 uM), Ishikawa AlkP [4]: non-significant
- E2 antagonism (at 1 uM), Ishikawa AlkP ([4]; against E2 at 0.1 nM): marginal (1-10% of that of ICI 182, 780)
